Test results from patent US20260041679A1, “METHOD OF TREATING HYPERTENSION WITH THE ALDOSTERONE SYNTHASE INHIBITOR BAXDROSTAT” (CINCOR PHARMA, INC., priority 2022, published 2026).
“And” between values parts separate entries of the source, which are not always exact repeats. Identical values can stand only once.

What was measured:
patients with rHTN = assay: Study 121: seated blood pressure in patients with resistant hypertension (Example 8); assay type: in vivo, human; conditions: for DBP decrease: after 12 weeks
Excerpt: This study was a randomized, double-blind, placebo-controlled study to evaluate the efficacy and safety of baxdrostat in patients with rHTN. Patients with rHTN were defined as being on a stable regimen of ≥3 antihypertensive agents, one of which is a diuretic with a mean seated blood pressure (BP)≥130/80 mmHg. […] The secondary objectives were to evaluate the change from baseline in mean seated DBP with each of the selected dose strengths of baxdrostat compared to placebo and to evaluate the percentage of patients achieving a seated BP response<130/80 mmHg with each of the dose strengths of baxdrostat compared to placebo after 12 weeks of treatment. […] The study was planned to enroll 348 patients.
The primary endpoint was the placebo-adjusted change from baseline to week 12 of the mean office SBP. The secondary endpoints included the placebo-adjusted change from baseline to week 12 in seated office DBP, and the percentage of patients achieving a seated BP response<130/80 mmHg with each of the selected dose strengths of baxdrostat compared to placebo after 12 weeks of treatment for rHTN.
The point estimates for the main treatment effect and for the secondary endpoints were generated by mixed model analyses of covariance that included responder status as a fixed effect. […] The change from baseline in mean seated SBP will be analyzed using a mixed model for repeated measures (MMRM) model. The analysis includes fixed effects for treatment, visit, and treatment-by-visit interaction, along with covariates of the baseline mean seated SBP and baseline glomerular filtration rate. The restricted maximum likelihood estimation (REML) approach was used with an unstructured covariance matrix.

[1] = Study 124 Part 1: safety, adverse events and serum potassium; assay type: in vivo, human
Excerpt: The safety objectives for both Parts 1 and 2 are to evaluate vital signs, standing blood pressure, heart rate, physical examinations, ECG, body weight, and clinical laboratory assessments, including standard safety chemistry panel, hematology, coagulation, and urinalysis.

## CCC(=O)N[C@@H]1CCCc2c(-c3ccc4c(c3)CCC(=O)N4C)cncc21 [baxdrostat, (R)—N-(4-(1-methyl-2-oxo-1,2,3,4-tetrahydroquinolin-6-yl)-5,6,7,8-tetrahydroisoquinolin-8-yl) propionamide]
Patients with rHTN; 0.5 mg QD, 12 weeks
  DBP, LS mean change (SE): −8.6 (1.23) mmHg
  DBP, LS mean difference vs placebo (SE): 0.5 (1.74) mmHg
  SBP, LS mean difference vs placebo (SE): −2.7 (2.68) mmHg
Patients with rHTN; 0.5 mg QD, 12 weeks, mITT
  SBP, LS mean change (SE): −12.1 (1.91) mmHg
Patients with rHTN; 0.5 mg, 12 weeks
  treatment effect on SBP vs placebo: modestly greater than that of placebo, but this difference did not reach statistical significance
Patients with rHTN; 0.5 mg
  DBP decrease: 8.6 mmHg
Patients with rHTN; 1 mg QD, 12 weeks
  DBP, LS mean change (SE): −11.8 (1.26) mmHg
  DBP, LS mean difference vs placebo (SE): −2.7 (1.75) mmHg
  SBP, LS mean difference vs placebo (SE): −8.1 (2.7) mmHg and −8.1 (2.72) mmHg
Patients with rHTN; 1 mg QD, 12 weeks, mITT
  SBP, LS mean change (SE): −17.5 (1.95) mmHg
Patients with rHTN; 1 mg, 12 weeks
  placebo-adjusted SBP decline: 8.1 mmHg
Patients with rHTN; 1 mg
  DBP decrease: 11.8 mmHg
Patients with rHTN; 2 mg QD, 12 weeks
  DBP, LS mean change (SE): −14.3 (1.31) mmHg
  DBP, LS mean difference vs placebo (SE): −5.2 (1.79) mmHg
  SBP, LS mean difference vs placebo (SE): −11.0 (2.78) mmHg
Patients with rHTN; 2 mg QD, 12 weeks, mITT
  SBP, LS mean change (SE): −20.3 (2.05) mmHg
Patients with rHTN; 2 mg, 12 weeks
  DBP lowered compared to the placebo group: 5.2 mmHg
  model adjusted, placebo-corrected decline in SBP: 11.0 mmHg
  reduction in SBP: 20.3 mmHg
Patients with rHTN; 2 mg
  DBP decrease: 14.3 mmHg
Patients with rHTN; 2 mg, intent to treat (ITT) analysis set
  model adjusted and placebo-corrected change from baseline in SBP: −11 mmHg
Patients with rHTN; 2 mg, per protocol analysis set
  model adjusted and placebo-corrected change from baseline in SBP: −11.1 mmHg
Patients with rHTN; 12 weeks of treatment
  time course of SBP decrease: rapid after treatment started and sustained throughout the 12 weeks of treatment
Patients with rHTN; Female, 0.5 mg
  SBP, LS mean change (SE): −10.2 (2.77)
Patients with rHTN; Female, 0.5 mg vs placebo
  SBP, LS mean difference (SE): 5.1 (4.12)
Patients with rHTN; Female, 1 mg
  SBP, LS mean change (SE): −17.8 (2.74)
Patients with rHTN; Female, 1 mg vs placebo
  SBP, LS mean difference (SE): −2.5 (4.09)
Patients with rHTN; Female, 2 mg
  SBP, LS mean change (SE): −18.2 (3.01)
Patients with rHTN; Female, 2 mg vs placebo
  SBP, LS mean difference (SE): −2.9 (4.27)
Patients with rHTN; Hispanic/Latino Female, 0.5 mg
  SBP, LS mean change (SE): −15.9 (4.27)
Patients with rHTN; Hispanic/Latino Female, 0.5 mg vs placebo
  SBP, LS mean difference (SE): 2.2 (5.93)
Patients with rHTN; Hispanic/Latino Female, 1 mg
  SBP, LS mean change (SE): −11.5 (4.80)
Patients with rHTN; Hispanic/Latino Female, 1 mg vs placebo
  SBP, LS mean difference (SE): 6.6 (6.33)
Patients with rHTN; Hispanic/Latino Female, 2 mg
  SBP, LS mean change (SE): −19.4 (3.59)
Patients with rHTN; Hispanic/Latino Female, 2 mg vs placebo
  SBP, LS mean difference (SE): −1.3 (5.46)
Patients with rHTN; Hispanic/Latino, 0.5 mg
  SBP, LS mean change (SE): −13.3 (2.72)
Patients with rHTN; Hispanic/Latino, 0.5 mg vs placebo
  SBP, LS mean difference (SE): −1.9 (3.94)
Patients with rHTN; Hispanic/Latino, 1 mg
  SBP, LS mean change (SE): −16.7 (3.43)
Patients with rHTN; Hispanic/Latino, 1 mg vs placebo
  SBP, LS mean difference (SE): −5.4 (4.46)
Patients with rHTN; Hispanic/Latino, 2 mg
  SBP, LS mean change (SE): −21.8 (2.95)
Patients with rHTN; Hispanic/Latino, 2 mg vs placebo
  SBP, LS mean difference (SE): −10.5 (4.10)
Patients with rHTN; Male, 0.5 mg
  SBP, LS mean change (SE): −13.7 (2.59)
Patients with rHTN; Male, 0.5 mg vs placebo
  SBP, LS mean difference (SE): −8.0 (3.53)
Patients with rHTN; Male, 1 mg
  SBP, LS mean change (SE): −17.4 (2.76)
Patients with rHTN; Male, 1 mg vs placebo
  SBP, LS mean difference (SE): −11.7 (3.66)
Patients with rHTN; Male, 2 mg
  SBP, LS mean change (SE): −22.4 (2.73)
Patients with rHTN; Male, 2 mg vs placebo
  SBP, LS mean difference (SE): −16.4 (3.63)
Patients with rHTN; Not Hispanic/Latino, 0.5 mg
  SBP, LS mean change (SE): −10.9 (2.72)
Patients with rHTN; Not Hispanic/Latino, 0.5 mg vs placebo
  SBP, LS mean difference (SE): −3.1 (3.75)
Patients with rHTN; Not Hispanic/Latino, 1 mg
  SBP, LS mean change (SE): −17.9 (2.41)
Patients with rHTN; Not Hispanic/Latino, 1 mg vs placebo
  SBP, LS mean difference (SE): −10.0 (3.52)
Patients with rHTN; Not Hispanic/Latino, 2 mg
  SBP, LS mean change (SE): −19.2 (2.86)
Patients with rHTN; Not Hispanic/Latino, 2 mg vs placebo
  SBP, LS mean difference (SE): −11.4 (3.84)
Patients with rHTN; Other (not Hispanic/Latino Female), 0.5 mg
  SBP, LS mean change (SE): −11.1 (2.11)
Patients with rHTN; Other (not Hispanic/Latino Female), 0.5 mg vs placebo
  SBP, LS mean difference (SE): −4.0 (2.99)
Patients with rHTN; Other (not Hispanic/Latino Female), 1 mg
  SBP, LS mean change (SE): −18.7 (2.13)
Patients with rHTN; Other (not Hispanic/Latino Female), 1 mg vs placebo
  SBP, LS mean difference (SE): −11.6 (3.00)
Patients with rHTN; Other (not Hispanic/Latino Female), 2 mg
  SBP, LS mean change (SE): −20.9 (2.45)
Patients with rHTN; Other (not Hispanic/Latino Female), 2 mg vs placebo
  SBP, LS mean difference (SE): −13.8 (3.24)
Patients with rHTN; patients with resistant hypertension, FIGS. 10A and 10B
  systolic and diastolic blood pressure: dose-dependent decreases
Patients with rHTN; subgroup analyses, baseline to Day 85
  SBP reduction by subgroup: greater reduction in SBP if they were male, white, not Hispanic or Latino, higher eGFR, and baseline SBP value of ≥145 mmHg
[1]; 0.5 mg
  Mean Change in Serum Potassium From Baseline at Week 8 (SD): −0.07 (0.37) mmol/L
[1]; 1 mg
  Mean Change in Serum Potassium From Baseline at Week 8 (SD): 0.26 (0.47) mmol/L
[1]; 2 mg
  Mean Change in Serum Potassium From Baseline at Week 8 (SD): 0.12 (0.48) mmol/L
[1]; 2 mg dose
  increase in mean potassium: 0.1 mEq/L
[1]; Part 1
  potassium elevations>6.2 mEq/L: No potassium elevations>6.2 mEq/L were recorded
